For 24 molecules, activity change, negative = growth inhibition and AC50 results are on record in PubChem BioAssay AID602184 (Broad Institute, 2012).

For orientation: AC50 means the midpoint of the concentration-response curve, whichever way the signal moves.

Calls of active or inactive are those of the source.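 The calls were made as follows: active = compounds whose fitted half-effect growth-inhibition concentration is no more than twice their top tested dose; inconclusive = flat curve showing moderate inhibition, or an unreliable curve fit; inactive = the rest.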

Tested on in one assay: not listed separately
As to the kind of experiment: S. cerevisiae growth inhibition on glycerol, dose response, glycerol medium, OD600, dry powder (AID 602184). The settings on record: S. cerevisiae growth in glycerol medium, OD600, 48 h; at 19.5 µM (top of the series).
Consider `NC(=O)c1cccc(C(=O)Nc2nc(-c3ccc4c(c3)CCCC4)cs2)c1`, for which the activity change, negative = growth inhibition was -13.9% (inactive).

Turning to `O=C(Nc1nc(-c2ccc3c(c2)CCCC3)cs1)c1ccccc1`, the activity change, negative = growth inhibition was -4.76% (inactive). As to `COc1ccc(-c2nnc(NC(=O)c3ccc(S(=O)(=O)N4CCCc5ccccc54)cc3)o2)cc1`, the activity change, negative = growth inhibition was -22.8% (inactive). Regarding `Oc1c(C(c2ccc(Cl)cc2)N2CCCC2)ccc2cccnc12` (centres undefined), the activity change, negative = growth inhibition was -8.5% (inactive).

Turning to `Cc1ccc(C(=O)Nc2nnc(-c3ccccc3)o2)cc1C`, the activity change, negative = growth inhibition was -3.03% (inactive).

Regarding `Cc1cc(C)n(-c2nc3ccccc3c(=O)n2OCC#N)n1`, the activity change, negative = growth inhibition was -14.8% (inactive). Take `O=C(Nc1nc(-c2ccccc2)cs1)c1ccc(Br)s1`: the activity change, negative = growth inhibition is -11.7% (inactive).

Still in this assay, the particulars now being: S. cerevisiae growth in glycerol medium, OD600, 48 h; at 23.5 µM (top of the series).
In the case of `Oc1c(CN2CCN(c3ccccc3)CC2)cc(Cl)c2cccnc12`, the activity change, negative = growth inhibition is -52.9% (inactive).

In the next assay the test system is S. cerevisiae growth in glycerol medium, OD600, 48 h. Described as above.
Conditions: not given
`Cc1ccc(C(=O)Nc2nc(-c3ccccn3)cs2)cc1`: the AC50 is 6.34 µM. With `O=C(Nc1nc(-c2ccccn2)cs1)c1ccccc1`, the AC50 was 18.9 µM.

As to `O=C(Nc1nnc(-c2ccc3c(c2)CCCC3)o1)c1ccc(Cl)cc1Cl`, the AC50 is 14.8 µM. With `O=C(NNC(=S)Nc1ccc(Cl)c(Cl)c1)c1ccccn1`, the AC50 was 12.7 µM. `O=C(Nc1nnc(-c2ccc3c(c2)CCCC3)o1)c1ccccc1`: the AC50 was 16.1 µM.

Take `CCOC(=O)N1C(=O)C2(CCCCC2)N(c2ccc(C)cc2)C1=S`: the AC50 was less than 0.08 µM. Regarding `Cc1ccc(-c2nc3c(Cl)cc(Cl)cc3c(=O)n2O)cc1`, the AC50 was 3.71 µM. Still for that read-out and setting: the result for `CN1CCN(C(c2ccc(C(F)(F)F)cc2)c2ccc3cccnc3c2O)CC1` (centres undefined) reads 3.1 µM; that for `O=C(Nc1nc(-c2ccccn2)cs1)c1ccc(Cl)s1`, 1.55 µM. With `Oc1c(CN2CCc3ccccc3C2)cc(Cl)c2cccnc12`, the AC50 was 8.17 µM.

Consider `CCCC(=O)NC(c1cccs1)c1cc(Cl)c2cccnc2c1O` (centres undefined), for which the AC50 was 10.6 µM. Same read-out and setting: the result for `O=C(Oc1c(Cl)cc(Cl)c2cccnc12)c1ccco1` reads 0.64 µM; that for `Oc1c(C(c2ccccc2Cl)N2CCCCC2)ccc2cccnc12` (centres undefined), 21.8 µM; that for `O=C(Nc1nc(-c2ccccn2)cs1)c1ccc(Br)s1`, 1.01 µM. Consider `C/C(=N\NC(=O)c1cc2ccccc2cc1O)c1ccccn1`, for which the AC50 is 14.4 µM.

Turning to `C=CCNC(=S)N/N=C(\C)c1ccccn1`, the AC50 was 8.88 µM.
